Measured values taken from patent US20240150293A1, “SPIROCYCLOHEXANE DERIVATIVES, PHARMACEUTICAL COMPOSITIONS CONTAINING THEM AND THEIR USES AS ANTI-APOPTOTIC INHIBITORS” (LES LABORATOIRES SERVIER, priority 2021, published 2024).

Molecular target: Mcl-1 protein (UniProtKB Q07820) (Homo sapiens (Human), UniProt Q07820)
Experiment: Inhibition of Mcl-1 by the fluorescence polarisation assay (Example A, Method A)
Assay type: binding
Conditions: fluorescence polarization assay
Procedure, shortened: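 Protein (5 nM) and fluorescein-tagged peptide tracer (1 nM) incubated with 11-point compound series for 2 h at room temperature in HEPES/NaCl/Tween 20 buffer, pH 7.4, 5% DMSO. Displacement read as decrease in polarisation; IC50 fitted by 4-parameter logistic, converted to Ki (cKi or eKi).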

Mcl-1 protein, sequence (Q07820 whole entry): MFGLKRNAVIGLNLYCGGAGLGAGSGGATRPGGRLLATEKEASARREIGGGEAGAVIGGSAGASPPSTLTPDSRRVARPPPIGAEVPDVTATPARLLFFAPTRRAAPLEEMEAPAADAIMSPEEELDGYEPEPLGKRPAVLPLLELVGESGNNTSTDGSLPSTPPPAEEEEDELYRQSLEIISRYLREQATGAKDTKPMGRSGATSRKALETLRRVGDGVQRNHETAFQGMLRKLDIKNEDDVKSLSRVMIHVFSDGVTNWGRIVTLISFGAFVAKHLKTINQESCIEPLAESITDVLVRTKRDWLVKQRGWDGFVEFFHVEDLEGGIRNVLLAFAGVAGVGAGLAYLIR

Compound	Ki [nM]
COc1cccc(N[C@]2(C(=O)O)CC[C@@]3(CC2)C(Br)=Cc2ccccc23)c1 [Example 86, (1s,4s)-2′-bromo-4-(3-methoxyanilino)spiro[cyclohexane-1,1′-indene]-4-carboxylic acid]	4100
O=C(O)[C@]1(Nc2cccc(Cl)c2)CC[C@]2(CC1)C(c1ccc3occc3c1)=Cc1ccccc12 [Example 247, (1s,4s)-2′-(1-benzofuran-5-yl)-4-(3-chloroanilino)spiro[cyclohexane-1,1′-indene]-4-carboxylic acid]	1220
O=C(O)C1(Nc2cccc(Cl)c2)CCC2(CC1)c1ccccc1-c1ccccc12 [Example 118, 4-(3-chloroanilino)spiro[cyclohexane-1,9′-fluorene]-4-carboxylic acid]	3990
O=C(O)[C@]1(Nc2cccc(Cl)c2)CC[C@@]2(CC1)c1ccccc1CC2c1cccc2c1OCC2 (single isomer, unassigned) [Example 296, (1r,4r)-4-(3-chloroanilino)-2′-(2,3-dihydro-1-benzofuran-7-yl)-2′,3′-dihydrospiro[cyclohexane-1,1′-indene]-4-carboxylic acid]	3460
O=C(O)[C@]1(Nc2cccc(Cl)c2)CC[C@@]2(CC1)c1ccccc1CC2CCCOc1cncnc1 (stereo partly shown) [Example 450, (1r,4r)-4-(3-chloroanilino)-2′-{3-[(pyrimidin-5-yl)oxy]propyl}-2′,3′-dihydrospiro[cyclohexane-1,1′-indene]-4-carboxylic acid]	781
COc1ccc(C2Cc3ccccc3[C@]23CC[C@@](Nc2cccc(Cl)c2)(C(=O)O)CC3)c(C)c1 (single isomer, unassigned) [Example 255, (1r,4r)-4-(3-chloroanilino)-2′-(4-methoxy-2-methylphenyl)-2′,3′-dihydrospiro[cyclohexane-1,1′-indene]-4-carboxylic acid]	11600
O=C(O)[C@]1(Nc2cccc(Cl)c2)CC[C@]2(CC1)C(c1ccc(OCc3ccncc3)cc1)=Cc1ccccc12 [Example 349, (1s,4s)-4-(3-chloroanilino)-2′-{4-[(pyridin-4-yl)methoxy]phenyl}spiro[cyclohexane-1,1′-indene]-4-carboxylic acid]	3590
O=C(O)[C@]1(Nc2cccc(Cl)c2)CC[C@@]2(CC1)c1ccccc1C[C@H]2c1ccc2occc2c1 [Example 281, (1r,2′S,4S)-2′-(1-benzofuran-5-yl)-4-(3-chloroanilino)-2′,3′-dihydrospiro[cyclohexane-1,1′-indene]-4-carboxylic acid]	473
O=C(O)C1(Nc2cccc(Br)c2)CCC2(C=Cc3ccccc32)CC1 (single isomer, unassigned) [Example 58, 4-(3-bromoanilino)spiro[cyclohexane-1,1′-indene]-4-carboxylic acid]	696
COc1cc(OC)cc([C@@H]2Cc3ccccc3[C@]23CC[C@@](Nc2cccc(Cl)c2)(C(=O)O)CC3)c1 [Example 336, (1r,2′S,4S)-4-(3-chloroanilino)-2′-(3,5-dimethoxyphenyl)-2′,3′-dihydrospiro[cyclohexane-1,1′-indene]-4-carboxylic acid]	2440
C/C=C/C1=Cc2ccccc2[C@]12CC[C@@](Nc1cccc(Cl)c1)(C(=O)O)CC2 [Example 159, (1r,4r)-4-(3-chloroanilino)-2′-[(1E)-prop-1-en-1-yl]spiro[cyclohexane-1,1′-indene]-4-carboxylic acid]	233
COc1ccc(C2=Cc3ccccc3[C@]23CC[C@@](Nc2cccc(Cl)c2)(C(=O)O)CC3)c(C)c1 [Example 229, (1s,4s)-4-(3-chloroanilino)-2′-(4-methoxy-2-methylphenyl)spiro[cyclohexane-1,1′-indene]-4-carboxylic acid]	1340
O=C(O)[C@]1(Nc2cccc(Cl)c2)CC[C@@]2(CC1)c1ccccc1C[C@@H]2c1cccc(Cc2ccccc2)c1 [Example 326, (1r,2′R,4R)-2′-(3-benzylphenyl)-4-(3-chloroanilino)-2′,3′-dihydrospiro[cyclohexane-1,1′-indene]-4-carboxylic acid]	19300
COc1ccc(C2=Cc3ccccc3[C@]23CC[C@@](Nc2cccc(Cl)c2)(C(=O)O)CC3)c(Cl)c1 [Example 251, (1s,4s)-4-(3-chloroanilino)-2′-(2-chloro-4-methoxyphenyl)spiro[cyclohexane-1,1′-indene]-4-carboxylic acid]	1690
O=C(O)[C@]1(Nc2cccc(Cl)c2)CC[C@@]2(CC1)c1ccccc1CC2[C@H]1C[C@@H]1COc1cccnc1 (single isomer, unassigned) [Example 114, (1r,4r)-4-(3-chloroanilino)-2′-[(1R*,2S*)-2-{[(pyridin-3-yl)oxy]methyl}cyclopropyl]-2′,3′-dihydrospiro[cyclohexane-1,1′-indene]-4-carboxylic acid]	27300
O=C(O)[C@]1(Nc2cccc(Cl)c2)CC[C@]2(CC1)C(c1cccc3occc13)=Cc1ccccc12 [Example 340, (1s,4s)-2′-(1-benzofuran-4-yl)-4-(3-chloroanilino)spiro[cyclohexane-1,1′-indene]-4-carboxylic acid]	921

Compound	Ki [nM]
COc1ccc(C2Cc3ccccc3[C@]23CC[C@@](Nc2cccc(Cl)c2)(C(=O)O)CC3)c(C)c1 (single isomer, unassigned) [Example 254, (1r,4r)-4-(3-chloroanilino)-2′-(4-methoxy-2-methylphenyl)-2′,3′-dihydrospiro[cyclohexane-1,1′-indene]-4-carboxylic acid]	2170
O=C(O)[C@]1(Nc2cccc(Cl)c2)CC[C@@]2(CC1)c1ccccc1CC2CCCOC1CCOc2ccccc21 (stereo partly shown) [Example 471, (1r,4r)-4-(3-chloroanilino)-2′-{3-[(3,4-dihydro-2H-1-benzopyran-4-yl)oxy]propyl}-2′,3′-dihydrospiro[cyclohexane-1,1′-indene]-4-carboxylic acid]	620
COCCOc1cc(N[C@]2(C(=O)O)CC[C@@]3(CC2)C(Br)=Cc2ccccc23)ccn1 [Example 81, (1s,4s)-2′-bromo-4-{[2-(2-methoxyethoxy)pyridin-4-yl]amino}spiro[cyclohexane-1,1′-indene]-4-carboxylic acid]	15500
CC1=Cc2ccccc2[C@]12CC[C@@](Nc1cccc(Cl)c1)(C(=O)O)CC2 [Example 143, (1r,4r)-4-(3-chloroanilino)-2′-methylspiro[cyclohexane-1,1′-indene]-4-carboxylic acid]	182
O=C(O)[C@]1(Nc2cccc(Cl)c2)CC[C@@]2(CC1)c1ccccc1CC2[C@H]1C[C@@H]1COc1ccnc2ccsc12 (single isomer, unassigned) [Example 105, (1r,4r)-4-(3-chloroanilino)-2′-[(1R*,2S*)-2-{[(thieno[3,2-b]pyridin-7-yl)oxy]methyl}cyclopropyl]-2′,3′-dihydrospiro[cyclohexane-1,1′-indene]-4-carboxylic acid]	3700
CC(C)C(COc1ccncc1)CC1Cc2ccccc2[C@]12CC[C@@](Nc1cccc(Cl)c1)(C(=O)O)CC2 (single isomer, unassigned) [Example 534, (1r,4r)-4-(3-chloroanilino)-2′-(3-methyl-2-{[(pyridin-4-yl)oxy]methyl}butyl)-2′,3′-dihydrospiro[cyclohexane-1,1′-indene]-4-carboxylic acid]	1520
COc1ccc([C@H]2Cc3ccccc3[C@]23CC[C@@](Nc2cccc(Br)c2)(C(=O)O)CC3)cc1 [Example 218, (1r,2′R,4R)-4-(3-bromoanilino)-2′-(4-methoxyphenyl)-2′,3′-dihydrospiro[cyclohexane-1,1′-indene]-4-carboxylic acid]	13400
O=C(O)[C@]1(Nc2cccc(Br)c2)CC[C@@]2(CC1)C(c1ccccc1)=Cc1ccccc12 [Example 209, (1r,4r)-4-(3-bromoanilino)-2′-phenylspiro[cyclohexane-1,1′-indene]-4-carboxylic acid]	35000
O=C(O)C1(Nc2cccc(Br)c2)CCC2(CC1)c1ccccc1CC2CCc1ccccc1 (racemic) [Example 201, 4-(3-bromoanilino)-2′-(2-phenylethyl)-2′,3′-dihydrospiro[cyclohexane-1,1′-indene]-4-carboxylic acid]	1530
Cc1ccccc1C1Cc2ccccc2C12CCC(Nc1cccc(Br)c1)(C(=O)O)CC2 (stereo not shown) [Example 214, 4-(3-bromoanilino)-2′-(2-methylphenyl)-2′,3′-dihydrospiro[cyclohexane-1,1′-indene]-4-carboxylic acid]	7900
COc1cc(OC)cc(C2=Cc3ccccc3[C@]23CC[C@@](Nc2cccc(Cl)c2)(C(=O)O)CC3)c1 [Example 308, (1s,4s)-4-(3-chloroanilino)-2′-(3,5-dimethoxyphenyl)spiro[cyclohexane-1,1′-indene]-4-carboxylic acid]	2930
O=C(O)[C@]1(Nc2cccc(Cl)c2)CC[C@@]2(CC1)c1ccccc1CC2CCCOc1cccc2c1CCN2 (stereo partly shown) [Example 470, (1r,4r)-4-(3-chloroanilino)-2′-{3-[(2,3-dihydro-1H-indol-4-yl)oxy]propyl}-2′,3′-dihydrospiro[cyclohexane-1,1′-indene]-4-carboxylic acid]	184
O=C(O)[C@]1(Nc2cccc(Cl)c2)CC[C@]2(C=Cc3ccccc32)CC1 [Example 65, (1s,4s)-4-(3-chloroanilino)spiro[cyclohexane-1,1′-indene]-4-carboxylic acid]	4990
CC1N(C=O)c2ccccc2[C@]12CC[C@](Nc1cccc(Br)c1)(C(=O)O)CC2 (stereo partly shown) [Example 26, (1r,4r)-4-(3-bromoanilino)-1′-formyl-2′-methyl-1′,2′-dihydrospiro[cyclohexane-1,3′-indole]-4-carboxylic acid]	42800
O=C(O)[C@]1(Nc2cccc(Cl)c2)CC[C@]2(CC1)C(C#CCCOc1ccnc3ccsc13)=Cc1ccccc12 [Example 195, (1s,4s)-4-(3-chloroanilino)-2′-{4-[(thieno[3,2-b]pyridin-7-yl)oxy]but-1-yn-1-yl}spiro[cyclohexane-1,1′-indene]-4-carboxylic acid]	266
